Legend:
JAK1 = JAK1 (Homo sapiens (Human), UniProt P23458); experiment: Biochemical JAK kinase assay (LanthaScreen), JAK1; settings: for Ki: read-out: JAK1 pKi (converted)
Outline: (§1)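 LanthaScreen format: phospho-STAT1 (pTyr701) detected with 2 nM Tb antibody after 10 mM EDTA quench. Kinase step used Km-level ATP and 200 nM STAT1 peptide, 1 h at ambient after 1 h pre-incubation. Inhibition fitted to IC50, reported as pKi.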

JAK2 = JAK2 (Homo sapiens (Human), UniProt O60674); experiment: Biochemical JAK kinase assay (LanthaScreen), JAK2; settings: for Ki: read-out: JAK2 pKi (converted)
Chain of JAK2 (O60674 whole entry): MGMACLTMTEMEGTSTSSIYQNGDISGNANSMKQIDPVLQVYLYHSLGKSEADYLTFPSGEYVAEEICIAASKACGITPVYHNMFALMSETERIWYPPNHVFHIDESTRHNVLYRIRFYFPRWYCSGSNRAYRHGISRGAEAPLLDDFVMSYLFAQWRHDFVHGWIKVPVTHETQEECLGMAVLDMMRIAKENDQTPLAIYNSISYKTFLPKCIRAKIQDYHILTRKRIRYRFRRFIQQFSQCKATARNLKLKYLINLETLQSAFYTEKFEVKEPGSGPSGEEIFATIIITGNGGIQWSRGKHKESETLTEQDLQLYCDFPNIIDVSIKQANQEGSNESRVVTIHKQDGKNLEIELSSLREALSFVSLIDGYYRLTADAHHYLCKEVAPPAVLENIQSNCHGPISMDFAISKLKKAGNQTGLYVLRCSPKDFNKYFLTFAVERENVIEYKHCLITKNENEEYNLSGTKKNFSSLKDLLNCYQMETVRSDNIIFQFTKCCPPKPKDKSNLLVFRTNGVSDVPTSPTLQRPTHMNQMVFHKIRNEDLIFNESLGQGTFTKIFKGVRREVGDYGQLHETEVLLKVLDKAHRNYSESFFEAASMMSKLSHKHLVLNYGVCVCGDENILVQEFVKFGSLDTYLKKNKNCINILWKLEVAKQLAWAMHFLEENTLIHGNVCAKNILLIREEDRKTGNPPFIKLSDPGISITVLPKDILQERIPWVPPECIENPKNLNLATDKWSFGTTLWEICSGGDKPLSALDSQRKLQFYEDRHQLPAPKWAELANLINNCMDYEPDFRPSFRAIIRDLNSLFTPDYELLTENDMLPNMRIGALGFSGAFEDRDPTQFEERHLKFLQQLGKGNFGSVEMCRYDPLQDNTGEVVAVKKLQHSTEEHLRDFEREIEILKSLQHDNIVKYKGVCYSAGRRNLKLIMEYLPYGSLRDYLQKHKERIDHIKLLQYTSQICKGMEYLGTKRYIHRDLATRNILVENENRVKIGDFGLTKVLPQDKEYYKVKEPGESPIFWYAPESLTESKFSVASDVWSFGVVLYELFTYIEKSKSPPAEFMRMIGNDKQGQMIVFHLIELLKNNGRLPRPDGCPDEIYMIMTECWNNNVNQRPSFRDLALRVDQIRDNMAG
Outline: as §1

[1] = tested on: IL-13 induced STAT6 phosphorylation in BEAS-2B human lung epithelial cells; experiment: Cellular JAKI potency assay (BEAS-2B); assay type: cell-based; settings: Homo sapiens, BEAS-2B, BEAS-2B cells, read-out: BEAS2B pIC50 (converted)
Outline: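 BEAS-2B cells were preincubated with compound (0.1% DMSO) in HBSS/HEPES/BSA for 1 h at 37 °C, then stimulated with IL-13 (80 ng/mL before addition) for 30 min. After lysis, pSTAT6 (Tyr641) was quantified by AlphaLISA SureFire; IC50 from a 4-parameter fit of percent inhibition, reported as pIC50.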

Chain of JAK1 (P23458 whole entry): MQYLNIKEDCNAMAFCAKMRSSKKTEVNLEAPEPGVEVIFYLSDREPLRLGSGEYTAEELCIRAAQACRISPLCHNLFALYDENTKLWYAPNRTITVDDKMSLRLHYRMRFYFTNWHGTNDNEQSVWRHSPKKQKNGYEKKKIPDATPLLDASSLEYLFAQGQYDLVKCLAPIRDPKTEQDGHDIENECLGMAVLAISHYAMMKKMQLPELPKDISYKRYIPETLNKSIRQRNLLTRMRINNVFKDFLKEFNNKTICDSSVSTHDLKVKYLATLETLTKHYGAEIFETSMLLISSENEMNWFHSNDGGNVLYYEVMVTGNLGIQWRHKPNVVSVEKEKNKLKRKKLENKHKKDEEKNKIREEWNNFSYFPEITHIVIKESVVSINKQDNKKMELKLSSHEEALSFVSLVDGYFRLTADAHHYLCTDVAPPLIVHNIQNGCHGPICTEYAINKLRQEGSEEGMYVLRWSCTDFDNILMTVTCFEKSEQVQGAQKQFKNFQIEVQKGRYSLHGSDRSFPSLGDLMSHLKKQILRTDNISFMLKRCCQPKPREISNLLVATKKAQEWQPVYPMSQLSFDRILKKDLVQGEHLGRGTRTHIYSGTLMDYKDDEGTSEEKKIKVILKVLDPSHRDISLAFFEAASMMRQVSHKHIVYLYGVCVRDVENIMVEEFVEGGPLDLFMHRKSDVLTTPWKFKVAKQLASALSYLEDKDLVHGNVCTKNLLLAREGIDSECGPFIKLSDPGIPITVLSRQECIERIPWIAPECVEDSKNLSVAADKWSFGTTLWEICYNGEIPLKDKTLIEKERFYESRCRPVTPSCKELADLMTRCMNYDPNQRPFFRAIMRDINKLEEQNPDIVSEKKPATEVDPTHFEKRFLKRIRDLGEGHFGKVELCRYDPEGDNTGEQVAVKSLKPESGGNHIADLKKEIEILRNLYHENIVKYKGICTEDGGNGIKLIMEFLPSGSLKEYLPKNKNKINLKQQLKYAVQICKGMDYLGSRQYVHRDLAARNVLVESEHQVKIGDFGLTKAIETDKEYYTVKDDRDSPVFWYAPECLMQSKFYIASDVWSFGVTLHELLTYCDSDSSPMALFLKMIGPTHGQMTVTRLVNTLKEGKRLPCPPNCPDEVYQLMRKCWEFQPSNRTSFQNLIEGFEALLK

Row | SMILES | Ki (JAK1) [nM] | Ki (JAK2) [nM] | IC50 [1] [nM] | JAK1 pKi (JAK1) | JAK2 pKi (JAK2)
1 | CCc1cc(O)ccc1-c1ccc2c(-c3nc(C4=CCCNC4C)c[nH]3)n[nH]c2c1 (stereo not drawn) [Example 233] | 0.1 to 1 | 0.1 to 1 | 10 to 31.6 |  | 
2 | CCCCN1CC=C(c2c[nH]c(-c3n[nH]c4c(F)c(-c5ccc(O)cc5CC)ccc34)n2)C1 [Example 316] |  |  | 10 to 31.6 | A (A represents a pKi value ≥10 (Ki≤0.1 nM)) | A (A represents a pKi value ≥10 (Ki≤0.1 nM))
3 | CCc1cc(O)ccc1-c1ccc2c(-c3nc(C4=CCN(C(=O)CCNCCOC)C4)c[nH]3)n[nH]c2c1F [Example 381] | 0.1 to 1 |  | 31.6 to 100 |  | A (A represents a pKi value ≥10 (Ki≤0.1 nM))
4 | CCc1cc(O)ccc1-c1ccc2c(-c3nc(C4=CCN(Cc5cnoc5)CC4)c[nH]3)n[nH]c2c1F [Example 326] | 0.1 to 1 | 0.1 to 1 | 10 to 31.6 |  | 
5 | CCc1cc(O)ccc1-c1ccc2c(-c3nc(C4=CC[C@H](C)N(C[C@H]5COCCN5)C4)c[nH]3)n[nH]c2c1F [Example 269] | 0.1 to 1 | 0.1 to 1 | 31.6 to 100 |  | 
6 | CCc1cc(O)ccc1-c1ccc2c(-c3nc(C4=C[C@H](CCO)NC4)c[nH]3)n[nH]c2c1F [Example 314] | 0.1 to 1 | 0.1 to 1 | 10 to 31.6 |  | 
7 | CCc1cc(O)ccc1-c1ccc2c(-c3nc(C4=CCN(C(C)C5CC(O)C5)CC4)c[nH]3)n[nH]c2c1F (stereo not drawn) [Example 58] |  |  | 3.16 to 10 | A (A represents a pKi value ≥10 (Ki≤0.1 nM)) | A (A represents a pKi value ≥10 (Ki≤0.1 nM))
8 | CCc1cc(O)ccc1-c1ccc2c(-c3nc(C4=CC[C@H](C)N(C[C@@H](C)CO)C4)c[nH]3)n[nH]c2c1F [Example 262] | 0.1 to 1 | 0.1 to 1 | 10 to 31.6 |  | 
9 | CCc1cc(O)ccc1-c1ccc2c(-c3nc(C4=C[C@H](CO)NCC4)c[nH]3)n[nH]c2c1F [Example 348] | 0.1 to 1 |  | 31.6 to 100 |  | A (A represents a pKi value ≥10 (Ki≤0.1 nM))
10 | CCc1cc(O)ccc1-c1ccc2c(-c3nc(C4=CCN(CCNC(=O)C5CCC5)CC4)c[nH]3)n[nH]c2c1F [Example 317] | 0.1 to 1 | 0.1 to 1 | 10 to 31.6 |  | 
11 | CCc1cc(O)ccc1-c1ccc2c(-c3nc(C4=CCCN(S(C)(=O)=O)C4)c[nH]3)n[nH]c2c1 [Example 160] | 0.1 to 1 | 0.1 to 1 | 10 to 31.6 |  | 
12 | CCc1cc(O)ccc1-c1ccc2c(-c3nc(C4=CC[C@H](C)N(C5CCOCC5)C4)c[nH]3)n[nH]c2c1F [Example 268] | 0.1 to 1 | 0.1 to 1 | 10 to 31.6 |  | 
13 | CCc1cc(O)ccc1-c1ccc2c(-c3nc(C4=CCN(Cc5cnn[nH]5)CC4)c[nH]3)n[nH]c2c1 [Example 133] | 0.1 to 1 |  | 10 to 31.6 |  | A (A represents a pKi value ≥10 (Ki≤0.1 nM))
14 | CCc1cc(O)ccc1-c1ccc2c(-c3nc(C4=CCNC(C)(C)C4)c[nH]3)n[nH]c2c1 [Example 376] | 0.1 to 1 | 0.1 to 1 | 31.6 to 100 |  | 
15 | CCc1cc(O)ccc1-c1ccc2c(-c3nc(C4=CCN(Cc5cnc[nH]5)CC4)c[nH]3)n[nH]c2c1F [Example 136] | 0.1 to 1 | 0.1 to 1 | 31.6 to 100 |  | 
16 | CCc1cc(O)ccc1-c1ccc2c(-c3nc(C4=CCN(C(=O)OC)CC4)c[nH]3)n[nH]c2c1 [Example 149] | 1 to 10 | 1 to 10 | 31.6 to 100 |  | 
17 | CCc1cc(O)ccc1-c1ccc2c(-c3nc(C4=CC[C@H](C)N(CCNS(C)(=O)=O)C4)c[nH]3)n[nH]c2c1F [Example 278] | 0.1 to 1 | 0.1 to 1 | 10 to 31.6 |  | 
18 | CCc1cc(O)ccc1-c1ccc2c(-c3nc(C4=CCCN(CCS(C)(=O)=O)C4)c[nH]3)n[nH]c2c1F [Example 91] | 0.1 to 1 | 0.1 to 1 | 10 to 31.6 |  | 
19 | CCc1cc(O)ccc1-c1ccc2c(-c3nc(C4=CCCN(CCNS(C)(=O)=O)C4)c[nH]3)n[nH]c2c1F [Example 111] | 0.1 to 1 | 0.1 to 1 | 10 to 31.6 |  | 
20 | CCc1cc(O)ccc1-c1ccc2c(-c3nc(C4=CCN(C(=O)c5ccccc5)CC4)c[nH]3)n[nH]c2c1 [Example 151] | 1 to 10 | 1 to 10 | 31.6 to 100 |  | 
21 | CCc1cc(O)ccc1-c1ccc2c(-c3nc(C4=CCN(C5CCOCC5)CC4)c[nH]3)n[nH]c2c1F [Example 61] | 0.1 to 1 |  | 10 to 31.6 |  | A (A represents a pKi value ≥10 (Ki≤0.1 nM))
